This note sets out measurements from patent US9988366B2, “Pesticidally active heterocyclic derivatives with sulphur containing substituents” (Syngenta Participations AG, priority 2014, dated 2018).

Holding throughout (type): in vivo
The test system of assay [1] is Spodoptera littoralis (Egyptian cotton leaf worm). Nature of the assay: Example B1: Spodoptera littoralis larvicide, feeding/residual contact activity, preventive (cotton leaf discs). As to conditions: foliar, 72 h, L1 larvae on sprayed cotton leaf discs, 3 days after treatment, read-out: effect in at least one of the three categories (mortality, anti-feedancy, or growth inhibition). The source says:
Example B1: Activity Against Spodoptera littoralis (Egyptian Cotton Leaf Worm)
(§1) (Larvicide, Feeding/Residual Contact Activity, Preventive)
Cotton leaf discs were placed on agar in a 24-well microtiter plate and sprayed with test solutions. After drying, the leaf discs were infested with five L1 larvae. The samples were checked for mortality, repellent effect, feeding behaviour, and growth regulation 3 days after treatment (DAT). Control of Spodoptera littoralis by a test sample is when at least one of mortality, anti-feedant effect, and growth inhibition is higher than an untreated sample.

The test system of assay [2] is Diabrotica balteata (corn root worm). Nature of the assay: Example B4: Diabrotica balteata larvae L2 on maize sprouts, feeding/contact, preventative. As to conditions: 120 h, 5 days, read-out: activity (larval mortality and growth regulation). How it is done: Example B4: Activity Against Diabrotica balteata (Corn Root Worm)
(Larvae L2 on Maize Sprouts, Feeding/Contact, Preventative)
Maize sprouts, placed on an agar layer in 24 well micro titer plates were treated with test solutions by spraying. After drying, the MTPs were infested with L2 larvae (6-10 per well). After an incubation period of 5 days, samples were checked for larval mortality and growth regulation.

The test system of assay [3] is Myzus persicae (green peach aphid). Nature of the assay: Example B5: Myzus persicae feeding/residual contact activity, preventive, mixed population (sunflower leaf discs). The conditions noted are these: foliar, 144 h, mixed population on sunflower leaf discs, 6 DAT. How it is done: Example B5: Activity Against Myzus persicae (Green Peach Aphid)
(Feeding/Residual Contact Activity, Preventive), Mixed Population
Sunflower leaf discs were placed on agar in a 24-well microtiter plate and sprayed with test solutions. After drying, the leaf discs were infested with an aphid population of mixed ages. After an incubation period of 6 DAT, samples were checked for mortality and special effects (e.g. phytotoxicity).

Assay [4] shares this test system. Nature of the assay: Example B6: Myzus persicae feeding activity sachet test, mixed population. The conditions noted are these: 120 h, sucrose solution, 5 days after infestation. An excerpt:
Example B6: Activity Against Myzus persicae (Green Peach Aphid)
(Feeding Activity Sachet Test), Mixed Population
Test compounds were applied by pipette into 24 well plates and mixed with Sucrose solution. The plates were closed with a stretched Parafilm. A plastic stencil with 24 holes is placed onto the plate and infested pea seedlings were placed directly on the Parafilm. The infested plate is closed with a gel blotting paper and another plastic stencil and then turned upside down. 5 days after infestation the samples were checked on mortality. Application rate: 12.5 ppm.

In assay [5] the test system is Plutella xylostella (diamond back moth). Nature of the assay: Example B3: Plutella xylostella larvicide, feeding/residual contact activity, preventive (artificial diet). The conditions noted are these: 120 h, L2 larvae on artificial diet, 5 days, read-out: activity (larval mortality, antifeedant and growth regulation). How it is done:
Example B3: Activity Against Plutella xylostella (Diamond Back Moth)
as §1
24-well microtiter plate (MTP) with artificial diet was treated with test solutions by pipetting. After drying, the MTPs were infested with L2 larvae (10-15 per well). After an incubation period of 5 days, samples were checked for larval mortality, antifeedant and growth regulation.

Assay [6] relates to Euschistus heros (neotropical brown stink bug). Nature of the assay: Example B8: Euschistus heros, soybean leaf spray test. The conditions noted are these: 120 h, N-2 nymphs on soybean leaf, 5 days after infestation. How it is done:
Example B8: Activity Against Euschistus heros (Neotropical Brown Stink Bug)
Soybean leaf on agar in 24-well microtiter plates were sprayed with aqueous test solutions prepared from 10,000 ppm DMSO stock solutions. After drying the leaf were infested with N-2 nymphs. The samples were assessed for mortality 5 days after infestation.

Structures are written as SMILES.

By mortality is commonly meant the share of the test organisms that died. As to `CCS(=O)(=O)c1cc(C(F)(F)F)cnc1-c1ncc(-c2cccc(C(F)(F)F)c2)n1C` [Compound P1, 3-ethylsulfonyl-2-[1-methyl-5-[3-(trifluoromethyl)phenyl]imidazol-2-yl]-5-(trifluoromethyl)pyridine], the percent control (mortality, anti-feedancy or growth inhibition) at 400 ppm in assay [1] was not below 80%. In addition, the mortality at 400 ppm in assay [2] and in assay [3] was more than 80% throughout. Also, the mortality at 12.5 ppm in assay [4] is not below 80%.

As for `CCS(=O)(=O)c1cc(C(F)(F)F)cnc1-c1ncc(-c2cncc(C(F)(F)F)c2)n1C` [Compound P5], the percent control (mortality, anti-feedancy or growth inhibition) at 400 ppm in assay [1] was not below 80%. In assay [3], the mortality at 400 ppm was more than 80%.

For `CCS(=O)(=O)c1cc(C(F)(F)F)cnc1-c1nc(Cl)c(-c2ccc(C(F)(F)F)cc2)n1C` [Compound P7], in assay [1], the percent control (mortality, anti-feedancy or growth inhibition) at 400 ppm is not below 80%. In assay [2], the mortality at 400 ppm was more than 80%.

For `CCn1c(-c2ccc(C(F)(F)F)nc2)cnc1-c1ncc(C(F)(F)F)cc1S(=O)(=O)CC` [Compound P11], the percent control (mortality, anti-feedancy or growth inhibition) at 400 ppm in assay [1] is not below 80%. Besides, the mortality at 400 ppm in assay [5], in assay [2] and in assay [3] was more than 80% in each case.

`CCS(=O)(=O)c1cc(C(F)(F)F)cnc1-c1ncc(-c2cccc(SC(F)(F)F)c2)n1C` [Compound P13]: the percent control (mortality, anti-feedancy or growth inhibition) at 400 ppm in assay [1] is not below 80%.

As for `CCS(=O)(=O)c1cc(C(F)(F)F)cnc1-c1ncc(-c2cccc(S(=O)(=O)C(F)(F)F)c2)n1C` [Compound P14], the percent control (mortality, anti-feedancy or growth inhibition) at 400 ppm in assay [1] is not below 80%. In assay [3], this compound showed a mortality at 400 ppm of more than 80%.

For `CCS(=O)(=O)c1cc(C(F)(F)F)cnc1-c1nc(C)c(-c2ccc(C(F)(F)F)cc2)n1C` [Compound P16], the mortality at 400 ppm in assay [2] is more than 80%.

Turning to `CCS(=O)(=O)c1cc(C(F)(F)F)cnc1-c1cnc(-c2cc(Cl)cc(Cl)c2)n1C` [Compound P17], the percent control (mortality, anti-feedancy or growth inhibition) at 400 ppm in assay [1] was not below 80%. The mortality at 400 ppm in assay [5] and in assay [2] was more than 80% each time.

In the case of `CCS(=O)(=O)c1cc(C(F)(F)F)cnc1-c1ncc(-c2ccc(Cl)cc2)n1C` [Compound P18], in assay [1], the percent control (mortality, anti-feedancy or growth inhibition) at 400 ppm was not below 80%. Besides, the mortality at 400 ppm in assay [5] and in assay [2] was more than 80% each time.

On to `CCS(=O)(=O)c1cc(C(F)(F)F)cnc1-c1ncc(-c2cc(C(F)(F)F)ccc2F)n1C` [Compound P20], for which the mortality at 400 ppm in assay [2] is more than 80%.

Take `CCS(=O)(=O)c1cc(C(F)(F)F)cnc1-c1ncc(-c2cccc(OC(F)(F)F)c2)n1C` [Compound P22]: the percent control (mortality, anti-feedancy or growth inhibition) at 400 ppm in assay [1] was not below 80%. Further, the mortality at 400 ppm in assay [2] was more than 80%.

For the compound `CCS(=O)(=O)c1cc(C(F)(F)F)cnc1-c1ncc(-c2ccc(Cl)nc2)n1C` [Compound P23], in assay [1], the percent control (mortality, anti-feedancy or growth inhibition) at 400 ppm is not below 80%. Moreover, the mortality at 400 ppm in assay [5] and in assay [2] was more than 80% in each case. This compound also registered a mortality at 12.5 ppm in assay [4] not below 80%.

For the compound `CCS(=O)(=O)c1cc(C(F)(F)F)cnc1-c1ncc(-c2ccc(C(F)(C(F)(F)F)C(F)(F)F)cc2)n1C` [Compound P24], in assay [1], the percent control (mortality, anti-feedancy or growth inhibition) at 400 ppm is not below 80%. Moreover, the mortality at 400 ppm in assay [5] and in assay [2] was more than 80% each time.

As for `CCS(=O)(=O)c1cc(C(F)(F)F)cnc1-c1ncc(-c2cccc(C#N)n2)n1C` [Compound P26], in assay [2], the mortality at 400 ppm was more than 80%.

Take `CCS(=O)(=O)c1cc(C(F)(F)F)cnc1-c1ncc(-c2ccnc(Cl)c2)n1C` [Compound P28]: the percent control (mortality, anti-feedancy or growth inhibition) at 400 ppm in assay [1] was not below 80%. Further, the mortality at 400 ppm in assay [5] and in assay [2] was more than 80% throughout.

As to `CCS(=O)(=O)c1cc(C(F)(F)F)cnc1-c1ncc(-c2cccc(C(F)(F)Cl)c2)n1C` [Compound P29], in assay [1], the percent control (mortality, anti-feedancy or growth inhibition) at 400 ppm was not below 80%. Also, the mortality at 400 ppm in assay [5], in assay [2] and in assay [6] was more than 80% throughout.

Turning to `CCS(=O)(=O)c1cc(C(F)(F)F)cnc1-c1ncc(-c2ccc(C(F)(F)F)cc2Cl)n1C` [Compound P30], the percent control (mortality, anti-feedancy or growth inhibition) at 400 ppm in assay [1] was not below 80%. For the same compound, the mortality at 400 ppm in assay [2] was more than 80%.

For `CCS(=O)(=O)c1cc(C(F)(F)F)cnc1-c1ncc(-c2cc(C#N)ccc2Cl)n1C` [Compound P32], the mortality at 400 ppm in assay [2] was more than 80%.

For the compound `CCS(=O)(=O)c1cc(C(F)(F)F)cnc1-c1ncc(-c2ccc(Cl)c(Cl)c2F)n1C` [Compound P33], the percent control (mortality, anti-feedancy or growth inhibition) at 400 ppm in assay [1] is not below 80%. Besides, the mortality at 400 ppm in assay [5] and in assay [2] was more than 80% throughout.

With `CCS(=O)(=O)c1cc(C(F)(F)F)cnc1-c1ncc(-c2cccc(Cl)c2)n1C` [Compound P34], in assay [2], the mortality at 400 ppm was more than 80%.

Take `CCS(=O)(=O)c1cc(C(F)(F)F)cnc1-c1ncc(-c2ccc(Cl)c(Cl)c2)n1C` [Compound P35]: the percent control (mortality, anti-feedancy or growth inhibition) at 400 ppm in assay [1] is not below 80%. Besides, the mortality at 400 ppm in assay [5], in assay [2] and in assay [6] was more than 80% in each case.

Regarding `CCS(=O)(=O)c1cc(C(F)(F)F)cnc1-c1ncc(-c2cc(F)cc(F)c2)n1C` [Compound P36], the mortality at 400 ppm in assay [2] is more than 80%.

As for `CCS(=O)(=O)c1cc(C(F)(F)F)cnc1-c1ncc(-c2cccc(C#N)c2)n1C` [Compound P41], the percent control (mortality, anti-feedancy or growth inhibition) at 400 ppm in assay [1] is not below 80%. In addition, in assay [2], the mortality at 400 ppm was more than 80%. This compound also returned a mortality at 12.5 ppm in assay [4] not below 80%.

On to `CCS(=O)(=O)c1cc(C(F)(F)F)cnc1-c1ncc(-c2ccc(F)c(F)c2)n1C` [Compound P43], for which, in assay [1], the percent control (mortality, anti-feedancy or growth inhibition) at 400 ppm is not below 80%. In addition, the mortality at 400 ppm in assay [5] and in assay [2] was more than 80% each time. This compound also gave a mortality at 12.5 ppm in assay [4] not below 80%.

On to `CCS(=O)(=O)c1cc(C(F)(F)F)cnc1-c1ncc(-c2cc(F)c(F)c(F)c2)n1C` [Compound P44], for which, in assay [1], the percent control (mortality, anti-feedancy or growth inhibition) at 400 ppm is not below 80%. In addition, the mortality at 400 ppm in assay [5] and in assay [2] was more than 80% in each case.

Consider `CCS(=O)(=O)c1cc(C(F)(F)F)cnc1-c1ncc(-c2ccc(C#N)cc2)n1C` [Compound P45], for which the percent control (mortality, anti-feedancy or growth inhibition) at 400 ppm in assay [1] was not below 80%. The mortality at 400 ppm in assay [5] and in assay [2] was more than 80% in each case. This compound also returned a mortality at 12.5 ppm in assay [4] not below 80%.

`CCS(=O)(=O)c1cc(C(F)(F)F)cnc1-c1ncc(-c2ccc(C#N)nc2)n1C` [Compound P47]: the percent control (mortality, anti-feedancy or growth inhibition) at 400 ppm in assay [1] was not below 80%. For the same compound, the mortality at 400 ppm in assay [2] was more than 80%.

Take `CCS(=O)(=O)c1cc(C(F)(F)F)cnc1-c1ncc(-c2ccc3c(c2)OC(F)(F)O3)n1C` [Compound P48]: the percent control (mortality, anti-feedancy or growth inhibition) at 400 ppm in assay [1] was not below 80%. Also, the mortality at 400 ppm in assay [5] and in assay [2] was more than 80% in each case.

As to `CCS(=O)(=O)c1cc(C(F)(F)F)cnc1-c1ncc(-c2ccc(C(F)(F)F)c(C(F)(F)F)c2)n1C` [Compound P49], the percent control (mortality, anti-feedancy or growth inhibition) at 400 ppm in assay [1] was not below 80%. Further, the mortality at 400 ppm in assay [5] and in assay [2] was more than 80% each time.

Turning to `CCS(=O)(=O)c1cc(C(F)(F)F)cnc1-c1ncc(-c2cc(C(F)(F)F)cc(Cl)n2)n1C` [Compound P51], in assay [1], the percent control (mortality, anti-feedancy or growth inhibition) at 400 ppm is not below 80%. Further, the mortality at 400 ppm in assay [5] and in assay [2] was more than 80% throughout.

Regarding `CCS(=O)(=O)c1cc(C(F)(F)F)cnc1-c1ncc(-c2cc(C(F)(F)F)cc(C(F)(F)F)c2)n1C` [Compound P52], in assay [1], the percent control (mortality, anti-feedancy or growth inhibition) at 400 ppm is not below 80%. The mortality at 400 ppm in assay [5] and in assay [2] was more than 80% throughout.

Regarding `CCS(=O)(=O)c1cc(C(F)(F)F)cnc1-c1ncc(-c2ccc(F)c(Cl)c2)n1C` [Compound P53], the percent control (mortality, anti-feedancy or growth inhibition) at 400 ppm in assay [1] is not below 80%. For the same compound, the mortality at 400 ppm in assay [5] and in assay [2] was more than 80% in each case.
